Reference: PubChem BioAssay (NCI)
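Cultured in 96-well plates, cells were exposed to test compound for 48 hours across five concentrations. Abbreviation: GI50, concentration required for 50% inhibition of growth. TGI marks complete inhibition of growth.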

Tests used:
Experiment in all cases: NCI-60 cell line screen, 48 h
[1] = system: A498 renal
[2] = system: ACHN renal
[3] = system: CAKI-1 renal
[4] = system: COLO 205 colon
[5] = system: DU-145 prostate
[6] = system: HCT-116 colon
[7] = system: HT29 colon
[8] = system: KM12 colon
[9] = system: MDA-MB-435
[10] = system: MDA-N
[11] = system: NCI-H522 lung
[12] = system: OVCAR-3 ovarian
[13] = system: OVCAR-4 ovarian
[14] = system: OVCAR-5 ovarian
[15] = system: SF-539 CNS
[16] = system: SK-MEL-28 melanoma
[17] = system: SNB-19 CNS
[18] = system: TK-10 renal

| Structure (SMILES) | TGI [1] | TGI [2] | TGI [3] | TGI [4] | TGI [5] | TGI [6] | TGI [7] | TGI [8] | TGI [9] | TGI [10] | TGI [11] | TGI [12] | TGI [13] | TGI [14] | TGI [15] | TGI [16] | TGI [17] | TGI [18] | GI50 [15] |
| --- | --- | --- | --- | --- | --- | --- | --- | --- | --- | --- | --- | --- | --- | --- | --- | --- | --- | --- | --- |
| COc1cccc(C2c3cc4c(cc3OC(NNC(N)=O)C2C)OCO4)c1O (stereo not given) | 42.4 µM | > 44.4 µM | > 77.9 µM | 9.05 µM | > 100 µM | > 38.9 µM | > 23 µM | > 79.2 µM | 0.523 µM | 0.653 µM | 10.9 µM | 29.6 µM | > 100 µM | > 100 µM | 6.55 µM | > 69.6 µM | > 100 µM | > 75.5 µM | – |
| CC(C)C1CC(CO)(CNc2nc(N)nc(Cl)c2/C=N\O)C1 (stereo not given) | 34.6 µM | 35 µM | 33.7 µM | 11.8 µM | > 100 µM | 34 µM | 15.5 µM | 18.3 µM | 28.9 µM | 23.9 µM | 22.4 µM | 36.9 µM | 28.3 µM | 85.2 µM | 49.3 µM | 26.1 µM | > 100 µM | 61.1 µM | – |
| C[C@@H](Oc1ccc(Oc2cnc3ccc(Cl)cc3n2)cc1)C(=O)O | > 100 µM | > 100 µM | > 100 µM | > 100 µM | > 100 µM | > 100 µM | > 100 µM | > 100 µM | > 100 µM | > 100 µM | > 100 µM | > 100 µM | > 100 µM | > 100 µM | > 100 µM | > 100 µM | > 100 µM | > 100 µM | > 87.9 µM |
